Reference: ChEMBL document CHEMBL6120968, “Discovery of Thiadiazoleamide Derivatives as Potent, Selective, and Orally Available Antagonists Disrupting Androgen Receptor Homodimer” (J Med Chem, 2024)
Activity calls are given as the source filed them. No cut-off for these calls is given here.

Tests used:
Androgen receptor = biological target: T1, Androgen receptor (Homo sapiens, UniProt P10275); assay: Antagonist activity at Androgen receptor in human LNCaP cells transfected with ARR2PB-eGFP incubated for 3 days by synergy H1 microplate reader analysis; assay type: cell-based
T1 sequence (P10275 whole entry): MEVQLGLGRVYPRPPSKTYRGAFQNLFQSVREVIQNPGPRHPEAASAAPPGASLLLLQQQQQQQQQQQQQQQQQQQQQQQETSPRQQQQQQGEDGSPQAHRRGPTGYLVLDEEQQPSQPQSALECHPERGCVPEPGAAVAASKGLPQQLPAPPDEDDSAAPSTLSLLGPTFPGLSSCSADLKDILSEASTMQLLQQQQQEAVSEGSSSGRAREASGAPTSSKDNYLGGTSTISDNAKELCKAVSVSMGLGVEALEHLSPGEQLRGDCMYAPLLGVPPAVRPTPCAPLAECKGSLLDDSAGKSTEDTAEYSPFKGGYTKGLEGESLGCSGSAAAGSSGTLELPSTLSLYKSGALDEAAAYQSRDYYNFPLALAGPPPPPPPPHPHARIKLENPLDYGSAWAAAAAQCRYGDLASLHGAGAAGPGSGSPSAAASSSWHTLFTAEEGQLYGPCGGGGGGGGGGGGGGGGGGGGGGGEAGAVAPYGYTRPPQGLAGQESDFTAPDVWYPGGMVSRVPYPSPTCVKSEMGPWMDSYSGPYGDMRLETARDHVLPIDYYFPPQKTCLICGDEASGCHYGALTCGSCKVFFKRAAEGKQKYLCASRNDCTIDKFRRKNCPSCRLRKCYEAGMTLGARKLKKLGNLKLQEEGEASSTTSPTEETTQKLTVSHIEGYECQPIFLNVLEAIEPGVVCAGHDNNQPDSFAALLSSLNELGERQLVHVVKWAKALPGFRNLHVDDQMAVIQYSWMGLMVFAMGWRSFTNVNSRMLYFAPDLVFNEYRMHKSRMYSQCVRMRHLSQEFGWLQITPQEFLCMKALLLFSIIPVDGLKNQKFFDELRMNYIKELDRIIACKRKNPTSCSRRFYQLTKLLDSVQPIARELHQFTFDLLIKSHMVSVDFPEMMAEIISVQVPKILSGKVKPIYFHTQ

NIH3T3 = assay: Antiproliferative activity against mouse 3T3 cells assessed as reduction in cell viability incubated for 3 days by MTT assay; assay type: toxicity, cell-based; conditions: nih3t3, 72 h, time 3 day
hERG (KCNH2) = hERG (KCNH2) (Homo sapiens, UniProt Q12809); assay: (§1) Inhibition of hERG at 10 uM relative to control; assay type: toxicity
LNCaP [1] = assay: Antiproliferative activity against human LNCaP cells assessed as inhibition of cell proliferation incubated for 3 days by MTT assay; assay type: functional, cell-based; conditions: 72 h
[2] = Downregulation of PSA level in human LNCaP cells transfected with ARR2PB-eGFP incubated for 24 hrs by Western blot analysis
LNCaP C4-2B = assay: Antiproliferative activity against human LNCaP C4-2B cells assessed as survival rate incubated for 3 days by MTT assay; conditions: 72 h
LNCaP C4-2 = assay: Antiproliferative activity against human LNCaP C4-2 cells assessed as survival rate incubated for 3 days by MTT assay; conditions: LNCaP C4-2, 72 h
LNCaP [3] = assay: Antiproliferative activity against human LNCaP cells assessed as survival rate incubated for 3 days by MTT assay; conditions: 72 h
[4] = biological target: Voltage-gated inwardly rectifying potassium channel KCNH2 (Homo sapiens, UniProt Q12809); assay: as §1; assay type: toxicity; conditions: 10 µM
LNCaP [5] = assay: Downregulation of FKBP5 level in DHT-induced human LNCaP cells at 0.1 to 1 uM incubated for 24 hrs by Western blot analysis; assay type: functional, cell-based; conditions: dose 0.1-1 µM
[6] = Antagonist activity at Androgen receptor F877L/T878A double mutant in human HEK293T cells cotransfected with MMTV-luc and renilla plasmid incubated for 24 hrs by Dual luciferase assay; assay type: cell-based; conditions: HEK-293T

hERG (KCNH2), sequence (Q12809 whole entry): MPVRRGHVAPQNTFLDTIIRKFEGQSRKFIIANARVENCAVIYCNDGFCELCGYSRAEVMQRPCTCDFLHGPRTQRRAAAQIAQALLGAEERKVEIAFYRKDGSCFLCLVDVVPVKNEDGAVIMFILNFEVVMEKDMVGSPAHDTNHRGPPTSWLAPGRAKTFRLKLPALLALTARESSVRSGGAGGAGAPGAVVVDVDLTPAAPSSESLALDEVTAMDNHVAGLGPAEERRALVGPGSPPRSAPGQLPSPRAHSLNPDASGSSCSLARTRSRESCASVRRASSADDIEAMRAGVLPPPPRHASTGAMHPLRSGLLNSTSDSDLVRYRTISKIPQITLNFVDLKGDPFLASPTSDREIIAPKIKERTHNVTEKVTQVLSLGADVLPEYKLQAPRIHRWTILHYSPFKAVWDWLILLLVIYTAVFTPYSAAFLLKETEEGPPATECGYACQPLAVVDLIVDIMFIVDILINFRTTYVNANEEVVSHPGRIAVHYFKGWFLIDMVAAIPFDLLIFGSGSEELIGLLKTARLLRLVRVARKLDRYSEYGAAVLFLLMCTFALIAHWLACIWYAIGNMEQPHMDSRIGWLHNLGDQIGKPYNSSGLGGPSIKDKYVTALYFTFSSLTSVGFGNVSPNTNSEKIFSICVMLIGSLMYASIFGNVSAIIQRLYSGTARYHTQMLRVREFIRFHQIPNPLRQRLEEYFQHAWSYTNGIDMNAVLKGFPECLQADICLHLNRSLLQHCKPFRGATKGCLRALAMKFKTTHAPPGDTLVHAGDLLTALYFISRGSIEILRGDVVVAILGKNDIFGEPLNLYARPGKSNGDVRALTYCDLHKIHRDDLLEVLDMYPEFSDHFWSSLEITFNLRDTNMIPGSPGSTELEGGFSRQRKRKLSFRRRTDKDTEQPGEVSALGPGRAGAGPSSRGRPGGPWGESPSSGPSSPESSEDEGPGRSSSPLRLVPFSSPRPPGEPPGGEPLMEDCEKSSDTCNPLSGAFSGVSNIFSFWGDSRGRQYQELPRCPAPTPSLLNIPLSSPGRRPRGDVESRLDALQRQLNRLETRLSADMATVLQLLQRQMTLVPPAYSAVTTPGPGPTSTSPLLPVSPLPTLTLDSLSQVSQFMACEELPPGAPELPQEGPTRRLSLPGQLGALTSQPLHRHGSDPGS
Voltage-gated inwardly rectifying potassium channel KCNH2, sequence (Q12809 whole entry): as above

Structure (SMILES)	IC50 (Androgen receptor) [nM]	other results
Cc1oc(-c2cccc(C(F)(F)F)c2Cl)cc1C(=O)Nc1nc(CN2CCOCC2)ns1	860	
CC(=O)Cc1ccc(NC(=O)c2cc(-c3cccc(C(F)(F)F)c3)oc2C)cc1	50000	
Cc1oc(-c2cc(F)cc(C(F)(F)F)c2)cc1C(=O)Nc1nc(CN2CCOCC2)ns1		Activity (NIH3T3): Non-toxic; inhibition at 10 µM (hERG (KCNH2)): 16.4%
Cc1oc(-c2cccc(OC(F)(F)F)c2)cc1C(=O)Nc1nc(CN2CCOCC2)ns1	19	inhibition at 10 µM (hERG (KCNH2)): 47.3%
CC(=O)Cc1nsc(NC(=O)c2cc(-c3cccc(C(F)(F)F)c3)sc2C)n1	9200	
CC(=O)Cc1nsc(NC(=O)c2coc(-c3cccc(C(F)(F)F)c3)c2)n1	710	
COc1cccc(-c2cc(C(=O)Nc3nc(CN4CCOCC4)ns3)c(C)o2)c1	22	inhibition at 10 µM (hERG (KCNH2)): 36.9%
Cc1oc(-c2cccc(C(F)(F)F)c2)cc1C(=O)Nc1nc(CC(C)O)ns1 (centres undefined)	29	
Cc1oc(-c2cccc(C(F)(F)F)c2)cc1C(=O)Nc1nc(CC(C)N2CCCC2)ns1 (centres undefined)	24	inhibition at 10 µM (hERG (KCNH2)): 93.5%
Cc1oc(-c2cccc(C(F)(F)F)c2F)cc1C(=O)Nc1nc(CN2CCOCC2)ns1	200	
Cc1oc(-c2cccc(C(F)(F)F)c2)cc1C(=O)Nc1nc(CN2CCCC(O)C2)ns1 (centres undefined)	150	
Cc1oc(-c2cccc(C(F)(F)F)c2)cc1C(=O)Nc1nc(CC(C)N2CCOCC2)ns1 (centres undefined)	32	
Cc1oc(-c2cccc(C(F)(F)F)c2)cc1C(=O)Nc1nccs1	450	
Cc1oc(-c2cccc(C(F)(F)F)c2)cc1C(=O)Nc1nc(CN2CCCCC2)ns1	24	inhibition at 10 µM (hERG (KCNH2)): 95.5%
Cc1oc(-c2cc(C(F)(F)F)ccc2Cl)cc1C(=O)Nc1nc(CN2CCOCC2)ns1	29	IC50 (LNCaP [1]): 3270 nM; inhibition at 10 µM (hERG (KCNH2)): 8%
Cc1oc(-c2cccc(C(F)(F)F)c2)cc1C(=O)Nc1nc(CC(C)N2CCN(C)CC2)ns1 (centres undefined)	36	
CC(=O)Cc1nsc(NC(=O)c2cc(-c3cccc(C(F)(F)F)c3)oc2C)n1	150	
Cc1oc(-c2ccc(Cl)c(C(F)(F)F)c2)cc1C(=O)Nc1nc(CN2CCOCC2)ns1	35	inhibition at 10 µM (hERG (KCNH2)): 51.3%

Structure (SMILES)	IC50 (Androgen receptor) [nM]	other results
CNC(=O)c1ccc(N2C(=S)N(c3ccc(C#N)c(C(F)(F)F)c3)C(=O)C2(C)C)cc1F [ENZALUTAMIDE]		IC50 [2]: 520 nM; IC50 (LNCaP C4-2B): 16300 nM; IC50 (LNCaP [1]): 12400 nM; IC50 (LNCaP C4-2): 27700 nM; IC50 (LNCaP [3]): 27700 nM; inhibition (INH) [4]: Not_active
Cc1oc(-c2cccc(C(F)(F)F)c2)cc1C(=O)Nc1nc(CN2CCC(CO)CC2)ns1	160	Activity (LNCaP [5]): Active
CC(=O)Cc1nsc(NC(=O)c2cc(-c3cccc(C(F)(F)F)c3)oc2C(F)(F)F)n1	8400	
Cc1oc(-c2cccc(C#N)c2)cc1C(=O)Nc1nc(CN2CCOCC2)ns1	16	inhibition at 10 µM (hERG (KCNH2)): 47.8%
Cc1oc(-c2cc(Cl)cc(C(F)(F)F)c2)cc1C(=O)Nc1nc(CN2CCOCC2)ns1	260	
CC(O)c1cc(C(=O)N[C@@H](C)Cn2ccc(-c3ccc(C#N)c(Cl)c3)n2)n[nH]1 (some centres undefined) [DAROLUTAMIDE]		IC50 [6]: 670 nM
Cc1oc(-c2cccc(OC(F)F)c2)cc1C(=O)Nc1nc(CN2CCOCC2)ns1	16	inhibition at 10 µM (hERG (KCNH2)): 68.3%
Cc1oc(-c2cccc(C(F)(F)F)c2)cc1C(=O)Nc1nc(CN2CCC(C(C)(C)O)CC2)ns1	270	
Cc1oc(-c2ccc(F)c(C(F)(F)F)c2)cc1C(=O)Nc1nc(CN2CCOCC2)ns1	26	
Cc1oc(-c2cccc(C(F)(F)F)c2)cc1C(=O)Nc1nc(CN2CCCC2)ns1	61	
Cc1oc(-c2cccc(C(F)(F)F)c2)cc1C(=O)Nc1nc(CN2CCC(O)CC2)ns1	140	
Cc1oc(-c2cccc(C(F)(F)F)c2)cc1C(=O)Nc1nc(CN2CCN(C)CC2)ns1	74	
Cc1oc(-c2cccc(C(F)(F)F)c2)cc1C(=O)Nc1ncns1	180	
Cc1oc(-c2cc(C(F)(F)F)ccc2F)cc1C(=O)Nc1nc(CN2CCOCC2)ns1	18	IC50 (LNCaP [1]): 2750 nM; inhibition at 10 µM (hERG (KCNH2)): 21%
Cc1oc(-c2cccc(C(F)(F)F)c2)cc1C(=O)Nc1nc(CC(C)N(C)C)ns1 (centres undefined)	280	
Cc1oc(-c2cccc(C(F)(F)F)c2)cc1C(=O)Nc1nc(CC(C)N2CCCCC2)ns1 (centres undefined)	450	
Cc1oc(-c2cccc(C(F)(F)F)c2)cc1C(=O)Nc1nc(CN2CCC(O)C2)ns1 (centres undefined)	470	
CC(Cc1nsc(NC(=O)c2cc(-c3cccc(C(F)(F)F)c3)oc2C)n1)=C(F)F	280	
